Measurements taken from patent publication US20240316008A1, “TREATMENT OF SYSTEMIC IMMUNE ACTIVATION SYNDROMES” (TRANQUIS THERAPEUTICS, INC., priority 2020, published 2024).

What was measured:
[1] = system: PGC-1α; assay: PGC-1α protein expression in BV2 microglia cells (Western blot); assay type: cell-based, murine; conditions: 24 hours
Description: Frozen BV2 murine microglia cells were thawed and propagated in complete media (RPMI, 10% heat-inactivated FBS, 1% L-glutamine, 1% Pen-Strep) until the growth rate reached log phase. For protein expression analysis, DMSO (1:1000 final dilution) or TQS-168 in DMSO (1:1000 final dilution) at 20 μM was added to cell cultures. After 24 hours stimulation, supernatant was discarded and cell lysis buffer (Cell Signal) was added to adherent cells to extract protein. Total protein was quantified and normalized across all samples by BCA assays. Two replicates of untreated cultures and three replicates of TQS-168-treated cultures were investigated, with each replicate containing lysates from 5,000,000 BV2 myeloid cells. PGC1α expression was detected by Western Blot using an anti-PGC-1α antibody (SC13067, Santa Cruz Biotechnology, 1:500 dilution). Anti-β-actin antibody (SC8432, Santa Cruz Biotechnology, 1:2000 dilution) was used to quantify beta-actin, a housekeeping gene whose expression level is not know to be affected by TQS-168. […] Total protein was quantified and normalized across all samples by BCA assays. PGC-1α was subsequently detected by Western Blot using an anti-PGC-1α antibody (SC13067, Santa Cruz Biotechnology, 1:500 dilution). β-actin was detected with an anti-β-actin antibody (SC8432, Santa Cruz Biotechnology, 1:2000 dilution). […]

[2] = system: IL-6; assay: IL-6 secretion from LPS-stimulated BV2 cells (CBA assay); assay type: cell-based, murine; conditions: 100 ng/ml LPS, 1 μM-20 μM, 24 hours
Description: LPS was used to induce cytokine secretion from BV-2 cells. Cells were incubated with TQS-168 at various concentrations to assess whether TQS-168 could suppress the LPS-promoted release of various cytokines from in vitro cell cultures. Cytokine secretion was measured by cytometric bead array (CBA) fluorescence-activated cell sorting (FACS). Briefly, a vial of BV2 frozen stock (1 million cells per ml in complete medium) was thawed into 10 mL of complete medium per vial for a total of 4 vials. The vials were then centrifuged at 1800 rpm for 3 minutes to wash away freezing media. The four vials were then pooled into 25 mL of complete medium. TQS-168 was prepared in DMSO. Cells were incubated for 24 hours in the presence of medium (negative control), LPS (positive control), DMSO+LPS (positive control, controlling additionally for presence of DMSO in the TQS-168 stock solution), or LPS+TQS-168 at final concentrations of 1 μM, 5 μM, 10 μM, and 20 μM. After the well plates were incubated overnight for 24 hours, they were centrifuged at 1800 rpm for 5 minutes. Next, 150 μl from each well was transferred to a new set of plates, of which 50 μl was used for CBA. The plates were then centrifuged with the cells, followed by addition of 100 μl of DAPI (50 ml of PBS+10 μl of DAPI stock at 1:5000 dilution). […]

[3] = system: TNFα; assay: TNFα release by LPS-stimulated BV2 cells (ELISA); assay type: cell-based, murine; conditions: BV-2 cells, 10 μM, ELISA at 24 hours
Description: First, 100 μl of supernatant was removed from Cell Plate and transferred to a Dilution Plate, which was then centrifuged at 216×g for 10 minutes to remove particulates. The dilution plate was either assayed immediately or aliquots were taken and stored at stored at ≤−20° C.; repeated freeze-thaw cycles were avoided.
Next, a standard curve was prepared by first pipetting 900 ul of Calibrator Diluent RD5K into the 700 pg/mL tube, followed by 200 μl of the appropriate calibrator diluent in the remaining tubes. The stock solution was used to produce a dilution. The resulting tubes were then thoroughly mixed. The Mouse TNFα Standard (700 pg/mL) served as the high standard, and the Calibrator Diluent RD5T served as the zero standard at 0 pg/ml.
Assay Diluent RD1-63 (50 ul) was then added to the center of each well and mixed before and during its use. Then, 50 ul of either standard, control, or sample was added to the center of each well, and covered with adhesive strip. The plate was then mixed for 1 minute and incubated for 2 hours at room temperature.
Each well was then aspirated and washed by filling each well with Wash Buffer (400 ul) five times. After the last wash, the remaining Wash Buffer was removed by aspirating or decanting. TNFα […] conjugate (100 ul) was then added to each well, covered with adhesive strip, incubated for 2 hours at room temperature, and washed and/or aspirated five times.
Substrate solution (100 ul) was then added to each well, incubated in the dark for 30 minutes at room temperature, followed by addition of 100 μl of Stop Solution and mixed. The optical density of each well was determined within 30 minutes by using a microplate reader set to 450 nm.
Plates were read on a Spectrostar Nano machine with built-in MARS data analysis at […].
For TNFα ELISA, the BV-2 cells were very responsive to low concentrations of LPS. A concentration range of 0.1 ng/ml to 1,000 ng/ml was tested. 0.3 ng/ml LPS produced enough TNFα release (8-10 fold above background) from these cells after 22 hours stimulation without saturating the linear range of the ELISA detection system. If higher LPS concentrations are used for stimulating BV-2 cells, a […] is advised to stay within the linear range of the detection system. The current TNFα protocol uses 10,000 cells per well in 96 well plate. A cell count titration can optimize S/B ratio. Miniaturization from 96 well to 384 well is also feasible with this assay.
The TNFα ELISA assay is described in Example 5. The IL-6 assay is described below.

[4] = system: 12 human primary cell-based systems; assay: Eurofins BioMAP Diversity PLUS panel
[5] = BioMAP report, profile at 6.7 μM, 2.2 μM, 740 nM
[6] = profile at 6.7 μM, 2.2 μM, 740 nM
[7] = profile at 20 μM, 6.7 μM, 2.2 μM, 740 nM

CC(C)(C)c1ccc(-c2nc3ccccc3[nH]2)cc1 [TQS-168, 2-(4-tert-butylphenyl)-1H-benzimidazole]
PGC-1α protein expression ([1]; BV2 cells, concentrations ranging from 0.7 μM to 20 μM): induces
PGC-1α protein expression ([1]; BV2 microglia cells, 20 μM, Western blot): induces
LPS-induced secretion of IL-6 [2]: reduce
suppression of TNFα production ([3]; 0.3 ng/ml LPS): about 25%
inhibition at 10 µM ([3]; Mus musculus, 1 ng/ml LPS, read-out: inhibition of TNFα production): ~35%
decrease in sIgG, sIL-17F, sTNFα from B and T cells ([4]; 6.7 μM): greatest decrease
cytotoxicity to endothelial cells ([4]; 20 μM): cytotoxic
highest nontoxic concentration tested ([4]; BioMAP Diversity PLUS panel): 6.7 µM
tissue remodeling activity MMP-1 [4, 5]: increased
tissue remodeling activity αSMA [4, 5]: decreased
activity at non-cytotoxic concentrations [4, 6]: active
immune markers sIgG, sIL-17-F, sTNFα (from B and T cells, not monocytes) [4, 6]: decreased
inflammatory markers sPGE2 (from monocytes), IL-8 [4, 6]: decreased
proliferation of endothelial cells, T cells, B cells & fibroblasts [4, 6]: anti-proliferative
sIL-6 [4, 6]: increased
tissue remodeling markers MMP1, alpha-SMA [4, 6]: modulated
VCAM-1 [4, 7]: increased
immune markers sIgG, sIL-17A, sIL-17F, sIL-2, sTNFα, sIL-6 (from B and T cells, not monocytes) [4, 7]: decreased
